Results published in the Deep4Chem optical property database.

Test: solvent given as SMILES

| SMILES | absorption maximum (in CC#N) [nm] | absorption maximum (in CO) [nm] | absorption maximum (in ClCCl) [nm] | absorption maximum (in C1CCOC1) [nm] | absorption maximum (in Cc1ccccc1) [nm] | other results |
| --- | --- | --- | --- | --- | --- | --- |
| CCOC(=O)COc1ccc(C(c2c(C)[nH]c3ccccc23)c2c(C)[nH]c3ccccc23)cc1OC | 290 | 291 |  |  |  | absorption maximum (in O): 290 nm |
| CNc1ncc2nc(C#N)n(Cc3ccccc3)c2n1 | 342 | 342 | 341 |  |  | absorption maximum (in C1COCCO1): 342 nm |
| O=Cc1ccc(-c2ccc(C3=CCCCC3)s2)s1 | 358 |  |  | 385 |  | absorption maximum (in CCCCCC): 381 nm; absorption maximum (in CCO): 389 nm; absorption maximum (in OCCOCCO): 389 nm; absorption maximum (in c1ccncc1): 392 nm |
| Cc1ccc(-c2ccccc2)cc1 |  |  |  |  |  | absorption maximum (in C1CCCCC1): 257.4 nm |
| N#C[Se]CCCCCOc1ccc2ccc(=O)oc2c1 | 321 | 322 |  | 322 |  | absorption maximum (in C1CCCCC1): 321 nm; absorption maximum (in C1COCCO1): 319 nm; absorption maximum (in CCCCCCC): 319 nm; absorption maximum (in CCO): 323 nm; absorption maximum (in CN(C)C=O): 322 nm; absorption maximum (in O): 324 nm; absorption maximum (in OCCO): 326 nm |
| F[B-]1(F)Oc2ccccc2-c2cc(-n3c4ccccc4c4ccccc43)cc[n+]21 |  |  |  |  | 366 |  |
| N#Cc1nc2c(nc1C#N)C1c3ccc(N(c4ccccc4)c4ccccc4)cc3C2c2ccc(N(c3ccccc3)c3ccccc3)cc21 | 378 |  | 409 |  | 391 | absorption maximum (in C1CCCCC1): 408 nm |
| CCN(CC)c1ccc2c(c1)oc(=O)c1cc3c(C)nn(-c4ccccc4)c3nc12 |  |  | 377 |  |  |  |
| c1cnc2c(c1)c1nc(-c3ccc(-c4nc5c6cccnc6c6ncccc6c5[nH]4)cc3)[nH]c1c1cccnc12 |  |  |  |  |  | absorption maximum (in CS(C)=O): 398 nm |
| COc1cc(OC)cc(C2=C3C(C)=C(I)C(C)=[N+]3[B-](F)(F)n3c(/C=C/c4c[nH]c5ccc([N+](=O)[O-])cc45)c(I)c(C)c32)c1 |  |  | 606 | 612 |  | absorption maximum (in CS(C)=O): 622 nm |
| c1cc2c3c(cccc3c1)NC(c1ccc3ccc4cccc5ccc1c3c45)N2 | 341 | 340 |  |  | 344 | absorption maximum (in CS(C)=O): 344 nm |
| COc1ccc2c(c1)O[B-]13Oc4cc(OC)ccc4-c4cc(-c5ccccc5)c(n41)N=C1C(c4ccccc4)=CC2=[N+]13 (stereo unspecified) |  |  |  |  |  | absorption maximum (in ClC(Cl)Cl): 765 nm |
| O=C1c2ccccc2C(=O)N1c1ccc(Cn2cncn2)cc1 | 315 | 312 | 294 | 293 | 283 | absorption maximum (in C1COCCO1): 284 nm; absorption maximum (in CC(C)=O): 304 nm; absorption maximum (in CC(C)O): 306 nm; absorption maximum (in CCCCCC): 278 nm; absorption maximum (in CCCCO): 302 nm; absorption maximum (in CCO): 308 nm; absorption maximum (in CCOC(C)=O): 290 nm; absorption maximum (in CCOCC): 289 nm; absorption maximum (in CN(C)C=O): 314 nm; absorption maximum (in CS(C)=O): 320 nm |
| COc1ccc2nc3c(nc2c1)c(-c1ccccc1)nn3C | 434 |  |  | 435 |  | absorption maximum (in C1CCCCC1): 431 nm |
| CCN(CC)c1ccc([N+]2=Cc3ccc4c5c(ccc4c3O[B-]2(c2ccccc2)c2ccccc2)C=[N+](c2ccc([N+](=O)[O-])cc2)[B-](c2ccccc2)(c2ccccc2)O5)cc1 | 539 |  | 559 | 547 | 555 | absorption maximum (in CC(C)=O): 541 nm |
| CCCCCCc1ccsc1-c1ccc(-c2sc(C(=O)O)cc2CCCCCC)s1 |  | 352 | 364 |  |  | absorption maximum (in CC(C)=O): 361 nm; absorption maximum (in CCCCCC): 357 nm; absorption maximum (in CCO): 352 nm; absorption maximum (in O): 365 nm |
| Cc1ccsc1-c1cc2c3cc(-c4sccc4C)c4nc(C(F)(F)C(F)(F)C(F)(F)F)nc5c(-c6sccc6C)cc(c6cc(-c7sccc7C)c7nc(C(F)(F)C(F)(F)C(F)(F)F)nc1c7c26)c3c45 |  |  |  | 532 |  |  |

| SMILES | absorption maximum (in CC#N) [nm] | absorption maximum (in CO) [nm] | absorption maximum (in ClCCl) [nm] | absorption maximum (in C1CCOC1) [nm] | absorption maximum (in Cc1ccccc1) [nm] | other results |
| --- | --- | --- | --- | --- | --- | --- |
| CCOc1cc2c(cc1/C=C/C1=CC(=C(C#N)C#N)CC(C)(C)C1)c1ccccc1n2CC | 474 |  | 479 | 476 | 474 | absorption maximum (in CCO): 480 nm; absorption maximum (in CCOC(C)=O): 469 nm; absorption maximum (in CN(C)C=O): 487 nm; absorption maximum (in CS(C)=O): 491 nm; absorption maximum (in ClC(Cl)Cl): 480 nm |
| Cc1ccc(-c2cnc3ccc4ccccc4n23)cc1 |  |  | 324 |  |  |  |
| CCN(CC)c1ccc(C2=C3C(C)=CC(/C=C/c4ccc(OCCCN=[N+]=[N-])cc4)=[N+]3[B-](F)(F)n3c(C)cc(C)c32)cc1 |  | 570 |  |  |  |  |
| COc1ccc(/C=C(\C)c2nc3ccccc3o2)cc1 |  | 325 |  |  |  | absorption maximum (in C1CCCCC1): 320 nm |
| CCCCCCCCCCOc1ccc(C#Cc2cc3c(C#Cc4ccc(OCCCCCCCCCC)cc4)c(C#Cc4ccc(OCCCCCCCCCC)cc4)c4cc(C#Cc5ccc(OCCCCCCCCCC)cc5)cc5c(C#Cc6ccc(OCCCCCCCCCC)cc6)c(C#Cc6ccc(OCCCCCCCCCC)cc6)c(c2)c3c45)cc1 |  |  | 421 |  |  |  |
| O=C1c2ccccc2C2=Nc3ccc4ccccc4[n+]3[B-](F)(F)N12 |  |  | 387 |  |  |  |
| c1ccc2c(-c3cc4c(ccc5sccc54)s3)cccc2c1 |  |  | 307 |  |  |  |
| CN(C)c1ccc(C2=Nc3sc4ccccc4[n+]3[B-](F)(F)O2)cc1 | 421 |  | 425 | 424 | 421 | absorption maximum (in CC(C)=O): 425 nm |
| COC(=O)c1ccc2ccc3cccc4ccc1c2c34 | 379 | 379 | 379 | 379 | 381 | absorption maximum (in CCCCCC): 379 nm; absorption maximum (in CCO): 380 nm; absorption maximum (in CN(C)C=O): 380 nm |
| Cc1ccc(/C2=c3\cc/c(o3)=C(\c3ccc(C)cc3)c3ccc([nH]3)-c3ccc4n3[B-](F)(F)[N+]3=C(C=CC3=C4c3ccco3)c3ccc2[nH]3)cc1 |  |  |  |  |  | absorption maximum (in ClC(Cl)Cl): 722 nm |
| COc1ccc(C2=[N+]3C(=Nc4c5c6cc(OC)c(OC)c(OC)c6c6cc(C(C)(C)C)ccc6c5c(-c5ccc(OC)cc5)n4[B-]3(F)F)c3c2c2ccc(C(C)(C)C)cc2c2c(OC)c(OC)c(OC)cc32)cc1 |  |  |  |  | 745 |  |
| CCC1(CC)c2cc(B(c3c(C)cc(C)cc3C)c3c(C)cc(C)cc3C)ccc2-c2ccc(N(c3ccccc3)c3ccc4c(c3)C(CC)(CC)c3cc(B(c5c(C)cc(C)cc5C)c5c(C)cc(C)cc5C)ccc3-4)cc21 | 417 |  |  | 422 | 424 | absorption maximum (in CC(C)=O): 418 nm; absorption maximum (in CCCCCC): 422 nm; absorption maximum (in CN(C)C=O): 422 nm; absorption maximum (in ClC(Cl)Cl): 422 nm |
| COc1ccc2c(c1)c1cc(OC)ccc1n2-c1cccc(-n2c3ccc(OC)cc3c3cc(OC)ccc32)c1C#N |  |  |  |  | 391 |  |
| Cc1cc2cc(C)c3c4ccccc4[nH]c3c2o1 |  |  | 302 |  |  |  |
| CC1(C)C(/C=C/C2=C(Cl)C(=C/C=C3/N(CCCCS(=O)(=O)[O-])c4ccc5ccccc5c4C3(C)C)/CCC2)=[N+](CCCCS(=O)(=O)[O-])c2ccc3ccccc3c21 |  | 820 |  |  |  |  |
| c1ccc(/C(=C(\c2ccccc2)c2ccccc2-c2ccc(-c3ccccc3)cc2)c2ccccc2-c2ccc(-c3ccccc3)cc2)cc1 |  |  |  | 280 |  |  |
